Literature values in patent US6949538B2, “Compounds, compositions, and methods” (Cytokinetics, Inc., priority 2002, dated 2005).

System: A549 cells
Settings: data provided by National Cancer Institute, Developmental Therapeutic Program

Question: For `O=c1[nH]cc(F)c(=O)[nH]1` [5-fluorouracil], which GI50 is on record?
Answer: 1000 nM

Question: For `COc1cccc2c1C(=O)c1c(O)c3c(c(O)c1C2=O)C[C@@](O)(C(=O)CO)C[C@@H]3O[C@H]1C[C@H](N)[C@H](O)[C@H](C)O1` [doxorubicin], which GI50 is on record?
Answer: 63 nM

Question: Which GI50 does the source give for `NC(=O)NO` [hydroxyurea] here?
Answer: 500000 nM

Question: For `CC(=O)O[C@H]1C(=O)[C@@]2(C)[C@H]([C@H](OC(=O)c3ccccc3)[C@]3(O)C[C@H](OC(=O)[C@H](O)[C@@H](NC(=O)c4ccccc4)c4ccccc4)C(C)=C1C3(C)C)[C@]1(OC(C)=O)CO[C@@H]1C[C@@H]2O` [paclitaxel], which GI50 is on record?
Answer: 4 nM
